Experiments:
[1] = target: Ribosomal protein S6 kinase alpha-1 (Homo sapiens) (UniProt Q15418); settings: Compound concentration 1000.0 nM
[2] = target: Serine/threonine-protein kinase 33 (Homo sapiens) (UniProt Q9BYT3); settings: Compound concentration 1000.0 nM
[3] = target: Homeodomain-interacting protein kinase 2 (Homo sapiens) (UniProt Q9H2X6); settings: Compound concentration 1000.0 nM
[4] = target: Casein kinase I isoform gamma-3 (Homo sapiens) (UniProt Q9Y6M4); settings: Compound concentration 1000.0 nM
[5] = target: Serine/threonine-protein kinase BRSK1 (Homo sapiens) (UniProt Q8TDC3); settings: Compound concentration 1000.0 nM
[6] = target: Delta-type opioid receptor (Homo sapiens) (UniProt P41143); settings: Compound concentration 10.0 uM
[7] = target: cAMP-dependent protein kinase catalytic subunit alpha (Homo sapiens) (UniProt P17612); settings: Compound concentration 1000.0 nM
[8] = target: Mitogen-activated protein kinase kinase kinase 2 (Homo sapiens) (UniProt Q9Y2U5); settings: Compound concentration 1000.0 nM
[9] = target: Phosphatidylinositol 5-phosphate 4-kinase type-2 gamma (Homo sapiens) (UniProt Q8TBX8); settings: Compound concentration 1000.0 nM
[10] = target: Serine/threonine-protein kinase 36 (Homo sapiens) (UniProt Q9NRP7); settings: Compound concentration 1000.0 nM
[11] = tested on: Proto-oncogene tyrosine-protein kinase receptor Ret (Homo sapiens), P07949 [V804M]; settings: Compound concentration 1000.0 nM
[12] = target: Mitogen-activated protein kinase kinase kinase 6 (Homo sapiens) (UniProt O95382); settings: Compound concentration 1000.0 nM
[13] = target: Serine/threonine-protein kinase 4 (Homo sapiens) (UniProt Q13043); settings: Compound concentration 1000.0 nM
[14] = target: Tyrosine-protein kinase Fes/Fps (Homo sapiens) (UniProt P07332); settings: Compound concentration 1000.0 nM
[15] = target: Testis-specific serine/threonine-protein kinase 3 (Homo sapiens) (UniProt Q96PN8); settings: Compound concentration 1000.0 nM
[16] = target: Ribosomal protein S6 kinase alpha-4 (Homo sapiens) (UniProt O75676); settings: Compound concentration 1000.0 nM
[17] = target: Activin receptor type-2A (Homo sapiens) (UniProt P27037); settings: Compound concentration 1000.0 nM
[18] = target: TGF-beta receptor type-1 (Homo sapiens) (UniProt P36897); settings: Compound concentration 1000.0 nM
[19] = target: Mitogen-activated protein kinase 15 (Homo sapiens) (UniProt Q8TD08); settings: Compound concentration 1000.0 nM
[20] = target: Serine/threonine-protein kinase Nek5 (Homo sapiens) (UniProt Q6P3R8); settings: Compound concentration 1000.0 nM
[21] = target: Mitogen-activated protein kinase kinase kinase 7 (Homo sapiens) (UniProt O43318); settings: Compound concentration 1000.0 nM
[22] = target: Cyclin-dependent kinase 15 (Homo sapiens) (UniProt Q96Q40); settings: Compound concentration 1000.0 nM
[23] = target: Ankyrin repeat and protein kinase domain-containing protein 1 (Homo sapiens) (UniProt Q8NFD2); settings: Compound concentration 1000.0 nM
[24] = tested on: Tyrosine-protein kinase ABL1 (Homo sapiens), P00519 [T315I]; settings: Compound concentration 1000.0 nM
[25] = target: Muscle, skeletal receptor tyrosine-protein kinase (Homo sapiens) (UniProt O15146); settings: Compound concentration 1000.0 nM
[26] = target: Hormonally up-regulated neu tumor-associated kinase (Homo sapiens) (UniProt P57058); settings: Compound concentration 1000.0 nM
[27] = target: RAF proto-oncogene serine/threonine-protein kinase (Homo sapiens) (UniProt P04049); settings: Compound concentration 1000.0 nM
[28] = target: Cyclin-G-associated kinase (Homo sapiens) (UniProt O14976); settings: Compound concentration 1000.0 nM
Histamine H3 receptor [29] = target: T1, Histamine H3 receptor (Homo sapiens, UniProt Q9Y5N1); settings: Compound concentration 10.0 uM
[30] = target: Bone morphogenetic protein receptor type-2 (Homo sapiens) (UniProt Q13873); settings: Compound concentration 1000.0 nM
[31] = tested on: Epidermal growth factor receptor (Homo sapiens), P00533 [T790M]; settings: Compound concentration 1000.0 nM
[32] = target: Interferon-induced, double-stranded RNA-activated protein kinase (Homo sapiens) (UniProt P19525); settings: Compound concentration 1000.0 nM
[33] = target: Histamine H1 receptor (Homo sapiens) (UniProt P35367); settings: Compound concentration 10.0 uM
[34] = target: Serine/threonine-protein kinase/endoribonuclease IRE1 (Homo sapiens) (UniProt O75460); settings: Compound concentration 1000.0 nM
[35] = tested on: Receptor-type tyrosine-protein kinase FLT3 (Homo sapiens), P36888 [UNDEFINED MUTATION]; settings: Compound concentration 1000.0 nM
[36] = target: Phosphatidylinositol 4-phosphate 3-kinase C2 domain-containing subunit beta (Homo sapiens) (UniProt O00750); settings: Compound concentration 1000.0 nM
[37] = target: Phosphorylase b kinase gamma catalytic chain, skeletal muscle/heart isoform (Homo sapiens) (UniProt Q16816); settings: Compound concentration 1000.0 nM
[38] = target: Interleukin-1 receptor-associated kinase 4 (Homo sapiens) (UniProt Q9NWZ3); settings: Compound concentration 1000.0 nM
[39] = target: Serine/threonine-protein kinase PLK3 (Homo sapiens) (UniProt Q9H4B4); settings: Compound concentration 1000.0 nM
[40] = target: Ribosomal protein S6 kinase alpha-2 (Homo sapiens) (UniProt Q15349); settings: Compound concentration 1000.0 nM
Histamine H3 receptor [41] = target: T1, Histamine H3 receptor; experiment: GPCRScan assay: inhibition of H3; parameters: radioligand conc. used [nm] 0.5 – 1.0, parental cells HEK Flp-In
[42] = target: Activin receptor type-2B (Homo sapiens) (UniProt Q13705); settings: Compound concentration 1000.0 nM
[43] = target: Dual specificity protein kinase CLK3 (Homo sapiens) (UniProt P49761); settings: Compound concentration 1000.0 nM
[44] = target: Phosphatidylinositol 4,5-bisphosphate 3-kinase catalytic subunit gamma isoform (Homo sapiens) (UniProt P48736); settings: Compound concentration 1000.0 nM

T1 sequence (Q9Y5N1 whole entry): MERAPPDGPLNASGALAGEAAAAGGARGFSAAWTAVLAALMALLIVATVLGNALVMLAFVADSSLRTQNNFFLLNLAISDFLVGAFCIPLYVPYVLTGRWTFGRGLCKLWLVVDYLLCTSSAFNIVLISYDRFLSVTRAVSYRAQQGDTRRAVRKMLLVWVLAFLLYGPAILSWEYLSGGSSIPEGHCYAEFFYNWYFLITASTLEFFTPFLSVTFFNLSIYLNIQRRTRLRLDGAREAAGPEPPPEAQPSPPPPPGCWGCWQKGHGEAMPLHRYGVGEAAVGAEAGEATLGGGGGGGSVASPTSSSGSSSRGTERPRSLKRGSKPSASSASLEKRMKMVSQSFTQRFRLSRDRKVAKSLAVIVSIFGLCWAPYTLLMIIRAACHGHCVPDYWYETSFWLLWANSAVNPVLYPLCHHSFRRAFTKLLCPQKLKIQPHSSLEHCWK
Sequence of Phosphatidylinositol 4-phosphate 3-kinase C2 domain-containing subunit beta (Homo sapiens) (O00750 whole entry, the tested form may be a part, canonical isoform): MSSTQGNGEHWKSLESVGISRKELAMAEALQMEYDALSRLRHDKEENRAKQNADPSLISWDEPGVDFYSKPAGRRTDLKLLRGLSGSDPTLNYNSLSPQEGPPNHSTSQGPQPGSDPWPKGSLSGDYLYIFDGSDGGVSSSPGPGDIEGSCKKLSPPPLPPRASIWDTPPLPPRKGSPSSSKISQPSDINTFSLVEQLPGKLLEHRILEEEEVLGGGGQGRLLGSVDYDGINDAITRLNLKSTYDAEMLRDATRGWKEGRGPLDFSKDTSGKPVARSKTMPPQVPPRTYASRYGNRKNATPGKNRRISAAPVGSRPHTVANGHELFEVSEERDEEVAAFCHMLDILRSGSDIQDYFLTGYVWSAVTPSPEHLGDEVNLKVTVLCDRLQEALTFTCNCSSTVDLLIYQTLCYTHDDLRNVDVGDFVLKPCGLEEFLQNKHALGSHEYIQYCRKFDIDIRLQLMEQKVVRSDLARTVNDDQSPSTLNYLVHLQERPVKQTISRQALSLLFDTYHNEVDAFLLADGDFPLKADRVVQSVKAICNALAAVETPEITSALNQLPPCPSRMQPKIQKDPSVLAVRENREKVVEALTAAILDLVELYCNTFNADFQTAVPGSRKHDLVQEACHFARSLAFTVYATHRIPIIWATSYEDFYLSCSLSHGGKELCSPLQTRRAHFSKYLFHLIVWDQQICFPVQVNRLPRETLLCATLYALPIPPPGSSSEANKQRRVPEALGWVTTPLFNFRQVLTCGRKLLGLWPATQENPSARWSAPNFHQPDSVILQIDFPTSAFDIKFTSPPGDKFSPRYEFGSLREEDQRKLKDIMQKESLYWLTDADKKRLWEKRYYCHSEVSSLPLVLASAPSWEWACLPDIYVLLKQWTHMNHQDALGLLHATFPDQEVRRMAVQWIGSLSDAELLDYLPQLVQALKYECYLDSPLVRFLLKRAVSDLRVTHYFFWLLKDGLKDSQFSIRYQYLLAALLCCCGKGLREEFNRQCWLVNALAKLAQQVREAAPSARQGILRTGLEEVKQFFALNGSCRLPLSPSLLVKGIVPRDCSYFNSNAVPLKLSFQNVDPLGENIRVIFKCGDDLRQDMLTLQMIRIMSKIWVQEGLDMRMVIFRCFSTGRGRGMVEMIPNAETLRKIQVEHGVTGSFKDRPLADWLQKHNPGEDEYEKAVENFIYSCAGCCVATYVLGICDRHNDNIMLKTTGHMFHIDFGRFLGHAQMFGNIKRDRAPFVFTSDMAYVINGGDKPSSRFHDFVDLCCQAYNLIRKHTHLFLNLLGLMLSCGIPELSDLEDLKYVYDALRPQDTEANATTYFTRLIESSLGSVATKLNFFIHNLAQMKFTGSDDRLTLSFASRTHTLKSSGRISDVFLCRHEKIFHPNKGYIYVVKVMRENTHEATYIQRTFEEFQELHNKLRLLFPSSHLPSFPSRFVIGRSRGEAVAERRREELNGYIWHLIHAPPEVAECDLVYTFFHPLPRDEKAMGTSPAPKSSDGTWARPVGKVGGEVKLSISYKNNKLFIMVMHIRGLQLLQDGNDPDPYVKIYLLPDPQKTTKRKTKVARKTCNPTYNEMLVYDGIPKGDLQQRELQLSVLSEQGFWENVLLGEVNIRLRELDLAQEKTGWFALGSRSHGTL
Sequence of Delta-type opioid receptor (Homo sapiens) (P41143 whole entry): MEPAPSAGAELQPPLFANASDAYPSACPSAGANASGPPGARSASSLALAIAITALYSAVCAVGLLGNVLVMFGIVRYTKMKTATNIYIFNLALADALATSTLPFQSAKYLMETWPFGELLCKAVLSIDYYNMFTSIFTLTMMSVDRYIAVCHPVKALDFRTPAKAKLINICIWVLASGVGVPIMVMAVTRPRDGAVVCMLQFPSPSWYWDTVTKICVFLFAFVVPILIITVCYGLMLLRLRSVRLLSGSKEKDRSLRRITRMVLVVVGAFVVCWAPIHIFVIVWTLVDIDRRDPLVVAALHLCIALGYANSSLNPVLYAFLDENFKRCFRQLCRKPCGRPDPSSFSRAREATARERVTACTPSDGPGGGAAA
Sequence of Phosphorylase b kinase gamma catalytic chain, skeletal muscle/heart isoform (Homo sapiens) (Q16816 whole entry, looked up, canonical isoform): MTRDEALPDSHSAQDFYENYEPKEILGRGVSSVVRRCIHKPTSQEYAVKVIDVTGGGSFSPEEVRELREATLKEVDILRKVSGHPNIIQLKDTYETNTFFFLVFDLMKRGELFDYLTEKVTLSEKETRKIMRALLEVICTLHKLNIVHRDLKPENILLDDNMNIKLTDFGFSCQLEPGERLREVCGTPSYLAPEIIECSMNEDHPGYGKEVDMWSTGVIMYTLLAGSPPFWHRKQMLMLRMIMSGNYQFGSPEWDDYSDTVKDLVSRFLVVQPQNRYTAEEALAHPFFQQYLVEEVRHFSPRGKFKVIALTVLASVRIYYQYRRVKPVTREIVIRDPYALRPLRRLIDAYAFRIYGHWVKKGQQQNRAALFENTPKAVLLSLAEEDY
Sequence of Cyclin-G-associated kinase (Homo sapiens) (O14976 whole entry): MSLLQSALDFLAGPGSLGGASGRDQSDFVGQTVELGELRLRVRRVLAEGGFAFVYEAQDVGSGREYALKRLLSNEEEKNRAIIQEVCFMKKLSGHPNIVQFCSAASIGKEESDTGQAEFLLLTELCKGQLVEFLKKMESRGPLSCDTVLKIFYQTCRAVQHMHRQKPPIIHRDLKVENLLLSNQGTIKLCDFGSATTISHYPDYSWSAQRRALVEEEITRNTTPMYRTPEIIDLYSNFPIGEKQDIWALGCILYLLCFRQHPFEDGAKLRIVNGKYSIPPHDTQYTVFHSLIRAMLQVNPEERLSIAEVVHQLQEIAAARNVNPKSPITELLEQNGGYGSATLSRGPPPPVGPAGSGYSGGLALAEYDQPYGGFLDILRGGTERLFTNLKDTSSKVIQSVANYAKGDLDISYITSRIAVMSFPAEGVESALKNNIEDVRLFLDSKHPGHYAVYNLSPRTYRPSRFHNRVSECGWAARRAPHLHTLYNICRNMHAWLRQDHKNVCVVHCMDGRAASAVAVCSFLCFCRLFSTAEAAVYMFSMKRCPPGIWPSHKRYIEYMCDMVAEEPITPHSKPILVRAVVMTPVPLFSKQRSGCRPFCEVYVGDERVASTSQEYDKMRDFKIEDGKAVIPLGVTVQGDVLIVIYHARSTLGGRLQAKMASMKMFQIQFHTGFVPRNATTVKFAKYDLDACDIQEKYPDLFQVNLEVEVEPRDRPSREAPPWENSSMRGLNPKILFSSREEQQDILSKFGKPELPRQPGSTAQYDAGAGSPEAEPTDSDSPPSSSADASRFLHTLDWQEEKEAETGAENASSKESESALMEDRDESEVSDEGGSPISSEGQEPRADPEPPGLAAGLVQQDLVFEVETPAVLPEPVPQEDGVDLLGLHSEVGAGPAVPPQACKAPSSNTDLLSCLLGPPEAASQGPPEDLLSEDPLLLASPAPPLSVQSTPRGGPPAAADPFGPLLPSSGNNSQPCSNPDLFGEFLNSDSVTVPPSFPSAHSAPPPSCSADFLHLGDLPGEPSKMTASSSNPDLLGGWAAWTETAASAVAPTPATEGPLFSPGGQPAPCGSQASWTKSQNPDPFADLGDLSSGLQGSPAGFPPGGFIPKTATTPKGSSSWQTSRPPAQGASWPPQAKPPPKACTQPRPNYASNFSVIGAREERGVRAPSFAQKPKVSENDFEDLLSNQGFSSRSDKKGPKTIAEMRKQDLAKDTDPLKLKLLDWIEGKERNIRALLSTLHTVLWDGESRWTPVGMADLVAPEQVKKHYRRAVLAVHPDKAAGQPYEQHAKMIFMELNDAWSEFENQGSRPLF
Sequence of Ribosomal protein S6 kinase alpha-2 (Homo sapiens) (Q15349 whole entry): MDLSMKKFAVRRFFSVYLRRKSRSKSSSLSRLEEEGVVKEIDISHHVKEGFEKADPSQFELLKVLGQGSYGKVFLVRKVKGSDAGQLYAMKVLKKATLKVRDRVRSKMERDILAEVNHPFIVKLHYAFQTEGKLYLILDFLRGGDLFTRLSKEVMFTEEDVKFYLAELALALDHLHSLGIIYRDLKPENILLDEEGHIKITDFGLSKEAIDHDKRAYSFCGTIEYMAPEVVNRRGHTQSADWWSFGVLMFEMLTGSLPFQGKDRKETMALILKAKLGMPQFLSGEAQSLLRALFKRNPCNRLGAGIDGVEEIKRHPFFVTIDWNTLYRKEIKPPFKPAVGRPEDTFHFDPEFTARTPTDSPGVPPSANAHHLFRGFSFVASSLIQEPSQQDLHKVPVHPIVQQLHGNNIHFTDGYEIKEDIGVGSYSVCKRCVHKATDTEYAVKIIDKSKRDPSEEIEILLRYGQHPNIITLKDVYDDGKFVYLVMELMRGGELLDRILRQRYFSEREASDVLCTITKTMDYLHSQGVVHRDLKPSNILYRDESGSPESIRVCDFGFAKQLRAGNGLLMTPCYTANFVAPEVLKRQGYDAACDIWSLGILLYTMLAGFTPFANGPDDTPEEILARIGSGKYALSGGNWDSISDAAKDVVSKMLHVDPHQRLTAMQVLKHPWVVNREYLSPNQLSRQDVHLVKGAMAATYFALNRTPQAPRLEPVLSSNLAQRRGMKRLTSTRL

Q: For `CC(=O)C1=C(C)N(c2cccc(C(F)(F)F)c2)C(=O)N[C@@H]1c1ccc(C#N)nc1` [BAY-678], which residual activity [1] is on record?
A: 91.5%

Q: What about the residual activity [2] of the same compound?
A: 91.6%

Q: And the residual activity [3]?
A: 94.3%

Q: And the residual activity [4]?
A: 100%

Q: What about the residual activity [5] of the same compound?
A: 100%

Q: And the inhibition [6]?
A: -6.02%

Q: What about the residual activity [7] of the same compound?
A: 92.3%

Q: What about the residual activity [8] of the same compound?
A: 100%

Q: What about the residual activity [9] of the same compound?
A: 80.7%

Q: And the residual activity [10]?
A: 100%

Q: What about the residual activity [11] of the same compound?
A: 100%

Q: And the residual activity [12]?
A: 91.2%

Q: And the residual activity [13]?
A: 97.5%

Q: And the residual activity [14]?
A: 84.1%

Q: What about the residual activity [15] of the same compound?
A: 96.2%

Q: And the residual activity [16]?
A: 78.8%

Q: And the residual activity [17]?
A: 85.7%

Q: And the residual activity [18]?
A: 99.2%

Q: And the residual activity [19]?
A: 100%

Q: And the residual activity [20]?
A: 80.6%

Q: What about the residual activity [21] of the same compound?
A: 100%

Q: What about the residual activity [22] of the same compound?
A: 100%

Q: What about the residual activity [23] of the same compound?
A: 100%

Q: And the residual activity [24]?
A: 100%

Q: What about the residual activity [25] of the same compound?
A: 100%

Q: And the residual activity [26]?
A: 80.1%

Q: And the residual activity [27]?
A: 100%

Q: What about the residual activity [28] of the same compound?
A: 97.2%

Q: What about the inhibition (Histamine H3 receptor [29]) of the same compound?
A: 50%

Q: What about the residual activity [30] of the same compound?
A: 100%

Q: What about the residual activity [31] of the same compound?
A: 67.2%

Q: What about the residual activity [32] of the same compound?
A: 83.4%

Q: And the inhibition [33]?
A: 34.1%

Q: And the residual activity [34]?
A: 100%

Q: What about the residual activity [35] of the same compound?
A: 61.2%

Q: What about the residual activity [36] of the same compound?
A: 100%

Q: What about the residual activity [37] of the same compound?
A: 100%

Q: And the residual activity [38]?
A: 100%

Q: And the residual activity [39]?
A: 84.2%

Q: And the residual activity [40]?
A: 100%

Q: And the Ki (Histamine H3 receptor [41]; read-out: Ki)?
A: 3.07 µM

Q: What about the Ki (Histamine H3 receptor [41]; read-out: pKi (converted)) of the same compound?
A: 2.82 µM

Q: What about the residual activity [42] of the same compound?
A: 87.5%

Q: What about the residual activity [43] of the same compound?
A: 100%

Q: And the residual activity [44]?
A: 100%
